The text below walks through data of US20230114728A1 (Venatorx Pharmaceuticals, Inc., priority 2019, published 2023).

In brackets after ≈: the same amount, converted by molar mass.

Holding throughout (experiment): Broth microdilution MIC in CAMHB
Common to all, as to format: cell-based

Experiment [1] deals with E. coli 901C. The note with it: Escherichia coli; E. coli 901C (hyper-permeable); MHB; read-out: Minimum Inhibitory Concentration, E. coli 901C. The procedure, abridged: (§1)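 Lowest compound concentration with no visible growth after 16-20 h at 37 °C defines MIC. Plates of 2-fold serial dilutions in cation-adjusted Mueller Hinton broth received 2-8×10^5 CFU/mL of exponentially grown cells, per CLSI methods; panel spans reference, hyper-permeable and efflux-pump-deleted strains.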

In experiment [2] the test system is E. coli AG100A. The note with it: Escherichia coli, read-out: Minimum Inhibitory Concentration, E. coli AG100A. The procedure, abridged:
as §1

Experiment [3] concerns E. coli AG100. As to conditions: Escherichia coli; E. coli AG100 (wild-type parent); MHB; read-out: Minimum Inhibitory Concentration, E. coli AG100. The procedure, abridged:
as §1

In experiment [4] the test system is E. coli ATCC 25922. As to conditions: Escherichia coli, ATCC25922; E. coli ATCC 25922; MHB; read-out: Minimum Inhibitory Concentration, E. coli 25922. In a few lines:
as §1

For experiment [5], the system named is E. coli D22. The note with it: Escherichia coli; E. coli D22 (hyper-permeable); MHB; read-out: Minimum Inhibitory Concentration, E. coli D22. The procedure, abridged: as §1
The subject of experiment [6] is K. pneumoniae 848844 producing SHV-11 and KPC-2. The note with it: Klebsiella pneumoniae, read-out: Minimum Inhibitory Concentration, K. pneumoniae 848844. The procedure, abridged: as §1
The subject of experiment [7] is K. pneumoniae SI-117 producing VIM-1. The note with it: Klebsiella pneumoniae, read-out: Minimum Inhibitory Concentration, K. pneumoniae SI-117. In a few lines: as §1
In experiment [8] the test system is K. pneumoniae UMM producing SHV-5 and KPC-2. The note with it: Klebsiella pneumoniae, read-out: Minimum Inhibitory Concentration, K. pneumoniae UMM. In a few lines:
as §1

The test system of experiment [9] is A. baumannii ATCC 19606. As to conditions: Acinetobacter baumannii, ATCC19606; MHB; read-out: Minimum Inhibitory Concentration, A. baumannii ATCC 19606. The procedure, abridged: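 Colonies from cation-adjusted Mueller Hinton agar are grown in broth (3-5 h, 37° C), adjusted by OD600, and added at 2-8×10^5 CFU/mL to 2-fold compound dilutions. After 16-20 h at 37° C, the lowest concentration without growth is taken as MIC.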

For experiment [10], the system named is P. aeruginosa (ΔmexAB-oprM). As to conditions: Pseudomonas aeruginosa, read-out: Minimum Inhibitory Concentration, P. aeruginosa ΔmexAB-OprM. In a few lines:
as §1

Experiment [11] has as its system P. aeruginosa ATCC 27853. The note with it: Pseudomonas aeruginosa, ATCC27853; MHB; read-out: Minimum Inhibitory Concentration, P. aeruginosa ATCC 27853. In a few lines:
as §1

The subject of experiment [12] is P. aeruginosa ATCC 35151. As to conditions: Pseudomonas aeruginosa, ATCC35151; MHB; hyper-permeable strain; read-out: Minimum Inhibitory Concentration, P. aeruginosa ATCC 35151. In a few lines: as §1

In the case of `O=C(O)c1ccc(C(NC(=O)N2CCN(CCNC(=O)c3ccc(O)c(O)c3Cl)C(=O)C2=O)C(=O)N[C@H]2Cc3ccc(F)c(C(=O)O)c3OB2O)cc1F` (stereo partly drawn) [Example 11, (3R)-3-(2-(4-carboxy-3-fluorophenyl)-2-(4-(2-(2-chloro-3,4-dihydroxybenzamido)ethyl)-2,3-dioxopiperazine-1-carboxamido)acetamido)-7-fluoro-2-hydroxy-3,4-dihydro-2H-benzo[e][1,2]oxaborinine-8-carboxylic acid], the MIC in experiment [1] was 0.5 to 1 µg/mL (≈ 0.646 to 1.29 µM); in experiment [2] it was 2 to 4 µg/mL (≈ 2.58 to 5.17 µM); in [3], 32 to 64 µg/mL (≈ 41.4 to 82.7 µM); in experiment [4], 32 to 64 µg/mL (≈ 41.4 to 82.7 µM); in experiment [5], 8 to 16 µg/mL (≈ 10.3 to 20.7 µM); in experiment [6] it was more than 128 µg/mL. In addition, the values for the MIC in [7] and in [8] were 32 to 64 µg/mL (≈ 41.4 to 82.7 µM) and 2 to 4 µg/mL (≈ 2.58 to 5.17 µM), respectively.
With `CCN1CCN(C(=O)NC(C(=O)N[C@H]2Cc3ccc(F)c(C(=O)O)c3OB2O)c2ccc(C(=O)O)cc2)C(=O)C1=O` (stereo partly drawn) [Example 15, (3R)-3-(2-(4-carboxyphenyl)-2-(4-ethyl-2,3-dioxopiperazine-1-carboxamido)acetamido)-7-fluoro-2-hydroxy-3,4-dihydro-2H-benzo[e][1,2]oxaborinine-8-carboxylic acid], the MIC in [9] is more than 128 µg/mL; in experiment [1], 0.5 to 1 µg/mL (≈ 0.877 to 1.75 µM); in experiment [2], 32 to 64 µg/mL (≈ 56.1 to 112 µM); in experiment [3], more than 128 µg/mL; in experiment [4], more than 128 µg/mL; in [5], 8 to 16 µg/mL (≈ 14 to 28.1 µM). Further, the MIC is more than 128 µg/mL in [6]; more than 128 µg/mL in [7]; more than 128 µg/mL in experiment [8]; 8 to 16 µg/mL (≈ 14 to 28.1 µM) in experiment [10]; 32 to 64 µg/mL (≈ 56.1 to 112 µM) in experiment [11]; less than 0.25 µg/mL in [12].
Turning to `CCN1CCN(C(=O)NC(C(=O)N[C@H]2Cc3cccc(C(=O)O)c3OB2O)c2ccc(O)c(NC(C)=O)c2)C(=O)C1=O` (stereo partly drawn) [Example 17, (3R)-3-(2-(3-acetamido-4-hydroxyphenyl)-2-(4-ethyl-2,3-dioxopiperazine-1-carboxamido)acetamido)-2-hydroxy-3,4-dihydro-2H-benzo[e][1,2]oxaborinine-8-carboxylic acid], the MIC in experiment [9] is more than 128 µg/mL; in experiment [1], 0.5 to 1 µg/mL (≈ 0.86 to 1.72 µM); in experiment [2], 8 to 16 µg/mL (≈ 13.8 to 27.5 µM); in experiment [3], more than 128 µg/mL; in experiment [4], more than 128 µg/mL; in [5], 2 to 4 µg/mL (≈ 3.44 to 6.88 µM). The MIC in experiment [6] is more than 128 µg/mL; in experiment [7] it was more than 128 µg/mL; in experiment [8], 32 to 64 µg/mL (≈ 55 to 110 µM); in experiment [10] it was 8 to 16 µg/mL (≈ 13.8 to 27.5 µM); in [11], more than 128 µg/mL; in experiment [12] it was 2 to 4 µg/mL (≈ 3.44 to 6.88 µM).
Turning to `CCN1CCN(C(=O)NC(C(=O)N[C@H]2Cc3ccc(F)c(C(=O)O)c3OB2O)c2nc(N)sc2F)C(=O)C1=O` (stereo partly drawn) [Example 18, (3R)-3-(2-(2-amino-5-fluorothiazol-4-yl)-2-(4-ethyl-2,3-dioxopiperazine-1-carboxamido)acetamido)-7-fluoro-2-hydroxy-3,4-dihydro-2H-benzo[e][1,2]oxaborinine-8-carboxylic acid], the MIC in [9] is more than 128 µg/mL; in [1] it was 0.5 to 1 µg/mL (≈ 0.883 to 1.77 µM); in [2] it was 2 to 4 µg/mL (≈ 3.53 to 7.06 µM); in experiment [3] it was 32 to 64 µg/mL (≈ 56.5 to 113 µM); in experiment [4], 8 to 16 µg/mL (≈ 14.1 to 28.3 µM); in [5], 2 to 4 µg/mL (≈ 3.53 to 7.06 µM). The MIC in experiment [6] is 32 to 64 µg/mL (≈ 56.5 to 113 µM); in experiment [7], 32 to 64 µg/mL (≈ 56.5 to 113 µM); in experiment [8], 8 to 16 µg/mL (≈ 14.1 to 28.3 µM); in experiment [10], 8 to 16 µg/mL (≈ 14.1 to 28.3 µM); in experiment [11], more than 128 µg/mL; in [12], 0.5 to 1 µg/mL (≈ 0.883 to 1.77 µM).
For the molecule `CCN1CCN(C(=O)N[C@H](C(=O)N[C@H]2Cc3cccc(C(=O)O)c3OB2O)c2nc(Cl)c(C(=O)O)cc2F)C(=O)C1=O` [Example 19, 6-((S)-2-(((R)-8-carboxy-2-hydroxy-3,4-dihydro-2H-benzo[e][1,2]oxaborinin-3-yl)amino)-1-(4-ethyl-2,3-dioxopiperazine-1-carboxamido)-2-oxoethyl)-2-chloro-5-fluoronicotinic acid], the MIC was more than 128 µg/mL in experiment [9]; 0.5 to 1 µg/mL (≈ 0.825 to 1.65 µM) in experiment [1]; 32 to 64 µg/mL (≈ 52.8 to 106 µM) in experiment [2]; more than 128 µg/mL in experiment [3]; more than 128 µg/mL in [4]; 2 to 4 µg/mL (≈ 3.3 to 6.6 µM) in experiment [5]. In addition, the MIC in experiment [6] is more than 128 µg/mL; in [7], more than 128 µg/mL; in experiment [8], more than 128 µg/mL; in experiment [10], 32 to 64 µg/mL (≈ 52.8 to 106 µM); in [11] it was more than 128 µg/mL; in experiment [12], 0.5 to 1 µg/mL (≈ 0.825 to 1.65 µM).
With `CCN1CCN(C(=O)NC(C(=O)N[C@H]2Cc3cccc(C(=O)O)c3OB2O)c2ncc(C(=O)O)cc2F)C(=O)C1=O` (stereo partly drawn) [Example 20, 6-(2-(((R)-8-carboxy-2-hydroxy-3,4-dihydro-2H-benzo[e][1,2]oxaborinin-3-yl)amino)-1-(4-ethyl-2,3-dioxopiperazine-1-carboxamido)-2-oxoethyl)-5-fluoronicotinic acid], the MIC in experiment [9] was more than 128 µg/mL; in experiment [1], less than 0.25 µg/mL; in experiment [2], 8 to 16 µg/mL (≈ 14 to 28 µM); in experiment [3], 32 to 64 µg/mL (≈ 56 to 112 µM); in [4], more than 128 µg/mL; in experiment [5] it was 2 to 4 µg/mL (≈ 3.5 to 7 µM). Besides, the MIC was more than 128 µg/mL in [6]; more than 128 µg/mL in experiment [7]; 32 to 64 µg/mL (≈ 56 to 112 µM) in experiment [8]; 8 to 16 µg/mL (≈ 14 to 28 µM) in [10]; more than 128 µg/mL in experiment [11]; 0.5 to 1 µg/mL (≈ 0.875 to 1.75 µM) in experiment [12].
On to `CCN1CCN(C(=O)NC(C(=O)N[C@H]2Cc3cccc(C(=O)O)c3OB2O)c2ccc(O)c(N(S(C)(=O)=O)S(C)(=O)=O)c2)C(=O)C1=O` (stereo partly drawn) [Example 21, (3R)-3-(2-(4-ethyl-2,3-dioxopiperazine-1-carboxamido)-2-(4-hydroxy-3-(N-(methylsulfonyl)methylsulfonamido)phenyl)acetamido)-2-hydroxy-3,4-dihydro-2H-benzo[e][1,2]oxaborinine-8-carboxylic acid], for which the MIC is more than 128 µg/mL in experiment [9]; less than 0.25 µg/mL in experiment [1]; 2 to 4 µg/mL (≈ 2.88 to 5.75 µM) in [2]; 32 to 64 µg/mL (≈ 46 to 92 µM) in experiment [3]; more than 128 µg/mL in experiment [4]; 2 to 4 µg/mL (≈ 2.88 to 5.75 µM) in [5]. In addition, the MIC is more than 128 µg/mL in experiment [6]; more than 128 µg/mL in experiment [7]; 32 to 64 µg/mL (≈ 46 to 92 µM) in experiment [8]; 32 to 64 µg/mL (≈ 46 to 92 µM) in experiment [10]; more than 128 µg/mL in experiment [11]; 2 to 4 µg/mL (≈ 2.88 to 5.75 µM) in experiment [12].
Consider `CCN1CCN(C(=O)NC(C(=O)N[C@H]2Cc3ccc(S)c(C(=O)O)c3OB2O)c2csc(N)n2)C(=O)C1=O` (stereo partly drawn) [Example 54, (3R)-3-(2-(2-aminothiazol-4-yl)-2-(4-ethyl-2,3-dioxopiperazine-1-carboxamido)acetamido)-2-hydroxy-7-mercapto-3,4-dihydro-2H-benzo[e][1,2]oxaborinine-8-carboxylic acid], for which the MIC in experiment [9] was more than 128 µg/mL; in [1] it was 0.5 to 1 µg/mL (≈ 0.889 to 1.78 µM); in experiment [2] it was more than 128 µg/mL; in experiment [3] it was more than 128 µg/mL; in experiment [4] it was more than 128 µg/mL; in [5], 32 to 64 µg/mL (≈ 56.9 to 114 µM). Also, the MIC was more than 128 µg/mL in [6]; more than 128 µg/mL in experiment [7]; more than 128 µg/mL in [8]; 32 to 64 µg/mL (≈ 56.9 to 114 µM) in [10]; 8 to 16 µg/mL (≈ 14.2 to 28.4 µM) in [12].
Consider `CCN1CCN(C(=O)NC(C(=O)N[C@H]2Cc3ccc(SCc4ccc(O)cc4)c(C(=O)O)c3OB2O)c2csc(N)n2)C(=O)C1=O` (stereo partly drawn) [Example 55, (3R)-3-(2-(2-aminothiazol-4-yl)-2-(4-ethyl-2,3-dioxopiperazine-1-carboxamido)acetamido)-2-hydroxy-7-((4-hydroxybenzyl)thio)-3,4-dihydro-2H-benzo[e][1,2]oxaborinine-8-carboxylic acid], for which the MIC in [9] is more than 128 µg/mL; in experiment [1], 0.5 to 1 µg/mL (≈ 0.748 to 1.5 µM); in experiment [2] it was 32 to 64 µg/mL (≈ 47.9 to 95.7 µM); in [3] it was more than 128 µg/mL; in experiment [4], 32 to 64 µg/mL (≈ 47.9 to 95.7 µM); in experiment [5], 8 to 16 µg/mL (≈ 12 to 23.9 µM). Besides, the MIC in experiment [6] is more than 128 µg/mL; in experiment [7], more than 128 µg/mL; in [8] it was more than 128 µg/mL; in [10] it was 32 to 64 µg/mL (≈ 47.9 to 95.7 µM); in experiment [12], 0.5 to 1 µg/mL (≈ 0.748 to 1.5 µM).
